The kinase profiling compilation of Christmann-Franck et al. (2016)

Key:
Assay in all cases: radiometric filter-binding kinase assay, Kinase HotSpot
Settings in all cases: compound 0.5 µM; ATP 10 µM
AURKB (human) = AURKB (human) (UniProt Q96GD4)
AXL (human) = AXL (human) (UniProt P30530)
CAMK1G (human) = CAMK1G (human) (UniProt Q96NX5)
CDK9 CCNK (human) = CDK9 CCNK (human) (UniProt O75909+P50750)
CDK9 CCNT1 (human) = CDK9 CCNT1 (human) (UniProt P50750+O60563)
CLK1 (human) = CLK1 (human) (UniProt P49759)
Sequence of CLK1 (human) (P49759 whole entry, looked up): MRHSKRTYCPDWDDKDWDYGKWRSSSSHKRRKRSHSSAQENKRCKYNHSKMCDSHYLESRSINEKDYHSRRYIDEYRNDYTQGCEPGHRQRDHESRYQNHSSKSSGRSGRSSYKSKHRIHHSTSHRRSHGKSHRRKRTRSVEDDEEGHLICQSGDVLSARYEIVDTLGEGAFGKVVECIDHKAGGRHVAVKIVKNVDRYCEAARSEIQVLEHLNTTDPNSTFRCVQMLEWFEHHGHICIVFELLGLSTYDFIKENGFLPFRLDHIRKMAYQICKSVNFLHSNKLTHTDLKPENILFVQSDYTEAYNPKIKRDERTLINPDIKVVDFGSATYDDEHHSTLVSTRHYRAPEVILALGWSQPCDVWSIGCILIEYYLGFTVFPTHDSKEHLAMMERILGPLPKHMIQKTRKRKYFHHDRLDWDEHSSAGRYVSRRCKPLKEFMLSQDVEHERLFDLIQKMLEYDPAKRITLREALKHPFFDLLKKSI

CSNK1E (human) = CSNK1E (human) (UniProt P49674)
DAPK1 (human) = DAPK1 (human) (UniProt P53355)
FLT1 (human) = FLT1 (human) (UniProt P17948)
FLT3 (human) = FLT3 (human) (UniProt P36888)
GSG2 (human) = GSG2 (human) (UniProt Q8TF76)
HIPK2 (human) = HIPK2 (human) (UniProt Q9H2X6)
HIPK4 (human) = HIPK4 (human) (UniProt Q8NE63)
Sequence of HIPK4 (human) (Q8NE63 whole entry, looked up): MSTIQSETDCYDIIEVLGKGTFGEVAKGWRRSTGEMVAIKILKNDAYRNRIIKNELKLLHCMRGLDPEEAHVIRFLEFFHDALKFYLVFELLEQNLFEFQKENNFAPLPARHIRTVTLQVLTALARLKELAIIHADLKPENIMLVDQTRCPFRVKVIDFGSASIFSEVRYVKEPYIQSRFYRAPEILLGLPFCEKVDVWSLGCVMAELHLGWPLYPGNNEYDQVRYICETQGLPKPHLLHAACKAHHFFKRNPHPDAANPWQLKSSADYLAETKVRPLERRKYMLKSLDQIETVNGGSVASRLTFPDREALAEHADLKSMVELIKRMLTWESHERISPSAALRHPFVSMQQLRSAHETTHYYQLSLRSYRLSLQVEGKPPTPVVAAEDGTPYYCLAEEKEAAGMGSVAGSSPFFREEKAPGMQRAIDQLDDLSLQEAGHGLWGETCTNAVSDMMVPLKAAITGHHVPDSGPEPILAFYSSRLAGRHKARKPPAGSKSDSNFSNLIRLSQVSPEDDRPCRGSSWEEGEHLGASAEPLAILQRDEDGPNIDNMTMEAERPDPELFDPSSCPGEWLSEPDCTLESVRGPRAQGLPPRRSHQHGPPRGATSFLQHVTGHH

IGF1R (human) = IGF1R (human) (UniProt P08069)
ITK (human) = ITK (human) (UniProt Q08881)
Sequence of ITK (human) (Q08881 whole entry, looked up): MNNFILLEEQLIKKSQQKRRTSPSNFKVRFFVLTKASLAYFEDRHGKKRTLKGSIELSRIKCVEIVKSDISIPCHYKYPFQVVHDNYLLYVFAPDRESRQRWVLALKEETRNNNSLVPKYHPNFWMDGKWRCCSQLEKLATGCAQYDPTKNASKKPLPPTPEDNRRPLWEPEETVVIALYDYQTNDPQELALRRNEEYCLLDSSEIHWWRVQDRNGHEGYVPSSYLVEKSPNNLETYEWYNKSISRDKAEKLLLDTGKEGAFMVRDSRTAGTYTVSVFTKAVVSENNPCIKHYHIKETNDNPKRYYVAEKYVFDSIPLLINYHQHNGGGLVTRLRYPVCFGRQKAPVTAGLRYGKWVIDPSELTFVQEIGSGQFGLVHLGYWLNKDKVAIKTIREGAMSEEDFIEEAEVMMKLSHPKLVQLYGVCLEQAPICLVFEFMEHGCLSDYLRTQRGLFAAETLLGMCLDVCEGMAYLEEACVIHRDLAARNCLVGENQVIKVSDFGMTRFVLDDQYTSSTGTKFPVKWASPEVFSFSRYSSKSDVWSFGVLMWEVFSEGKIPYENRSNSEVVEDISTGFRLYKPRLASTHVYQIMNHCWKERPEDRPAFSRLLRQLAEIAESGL

MAP3K14 (human) = MAP3K14 (human) (UniProt Q99558)
MAP3K3 (human) = MAP3K3 (human) (UniProt Q99759)
MAP3K5 (human) = MAP3K5 (human) (UniProt Q99683)
MAP3K9 (human) = MAP3K9 (human) (UniProt P80192)
Sequence of MAP3K9 (human) (P80192 whole entry, looked up): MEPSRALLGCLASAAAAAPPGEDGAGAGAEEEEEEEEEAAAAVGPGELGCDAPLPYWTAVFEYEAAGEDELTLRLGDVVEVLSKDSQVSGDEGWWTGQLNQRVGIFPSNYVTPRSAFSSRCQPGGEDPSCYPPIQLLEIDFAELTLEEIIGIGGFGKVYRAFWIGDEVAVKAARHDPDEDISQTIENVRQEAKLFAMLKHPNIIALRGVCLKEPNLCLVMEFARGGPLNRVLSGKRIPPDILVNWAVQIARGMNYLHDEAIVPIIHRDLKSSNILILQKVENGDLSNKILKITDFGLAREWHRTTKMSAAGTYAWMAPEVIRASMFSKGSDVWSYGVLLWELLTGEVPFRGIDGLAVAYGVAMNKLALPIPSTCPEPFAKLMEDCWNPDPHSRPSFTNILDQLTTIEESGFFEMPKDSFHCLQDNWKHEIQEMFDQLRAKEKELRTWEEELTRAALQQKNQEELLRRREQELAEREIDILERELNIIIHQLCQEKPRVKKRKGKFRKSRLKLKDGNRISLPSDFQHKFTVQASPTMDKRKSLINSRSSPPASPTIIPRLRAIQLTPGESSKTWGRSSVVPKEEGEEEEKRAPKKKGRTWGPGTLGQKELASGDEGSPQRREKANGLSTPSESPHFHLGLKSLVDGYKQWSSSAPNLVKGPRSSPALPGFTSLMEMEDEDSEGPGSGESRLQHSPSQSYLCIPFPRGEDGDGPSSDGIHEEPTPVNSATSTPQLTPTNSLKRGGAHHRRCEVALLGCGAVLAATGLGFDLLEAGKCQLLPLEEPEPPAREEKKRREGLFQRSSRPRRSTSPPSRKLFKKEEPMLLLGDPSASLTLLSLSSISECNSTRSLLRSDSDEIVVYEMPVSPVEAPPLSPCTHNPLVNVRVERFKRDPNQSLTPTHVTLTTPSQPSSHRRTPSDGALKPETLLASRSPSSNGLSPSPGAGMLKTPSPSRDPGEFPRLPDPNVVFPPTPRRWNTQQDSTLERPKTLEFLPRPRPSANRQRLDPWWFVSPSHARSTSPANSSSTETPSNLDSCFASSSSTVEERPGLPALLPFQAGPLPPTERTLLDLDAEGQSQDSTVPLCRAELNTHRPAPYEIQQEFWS

MAPKAPK2 (human) = MAPKAPK2 (human) (UniProt P49137)
MYO3B (human) = MYO3B (human) (UniProt Q8WXR4)
NLK (human) = NLK (human) (UniProt Q9UBE8)
NTRK2 (human) = NTRK2 (human) (UniProt Q16620)
PAK1 (human) = PAK1 (human) (UniProt Q13153)
PLK2 (human) = PLK2 (human) (UniProt Q9NYY3)
PLK3 (human) = PLK3 (human) (UniProt Q9H4B4)
PRKCE (human) = PRKCE (human) (UniProt Q02156)
PTK2B (human) = PTK2B (human) (UniProt Q14289)
RPS6KB2 (human) = RPS6KB2 (human) (UniProt Q9UBS0)
SGK3 (human) = SGK3 (human) (UniProt Q96BR1)
SRPK2 (human) = SRPK2 (human) (UniProt P78362)
STK33 (human) = STK33 (human) (UniProt Q9BYT3)
Sequence of STK33 (human) (Q9BYT3 whole entry, looked up): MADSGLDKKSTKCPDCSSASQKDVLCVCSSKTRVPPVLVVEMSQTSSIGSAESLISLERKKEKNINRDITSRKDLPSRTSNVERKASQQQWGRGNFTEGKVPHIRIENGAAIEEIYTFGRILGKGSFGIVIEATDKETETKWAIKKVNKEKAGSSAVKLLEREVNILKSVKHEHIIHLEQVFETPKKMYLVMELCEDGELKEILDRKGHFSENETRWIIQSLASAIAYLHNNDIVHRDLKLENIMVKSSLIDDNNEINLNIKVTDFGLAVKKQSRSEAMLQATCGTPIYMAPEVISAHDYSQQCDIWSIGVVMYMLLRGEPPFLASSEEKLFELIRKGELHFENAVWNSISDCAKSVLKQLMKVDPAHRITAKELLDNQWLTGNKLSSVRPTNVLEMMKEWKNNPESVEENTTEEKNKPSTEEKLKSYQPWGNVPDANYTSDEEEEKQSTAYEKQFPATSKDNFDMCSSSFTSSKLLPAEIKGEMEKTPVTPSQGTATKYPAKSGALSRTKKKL

STK38 (human) = STK38 (human) (UniProt Q15208)
STK4 (human) = STK4 (human) (UniProt Q13043)
SYK (human) = SYK (human) (UniProt P43405)
TAOK3 (human) = TAOK3 (human) (UniProt Q9H2K8)
TEK (human) = TEK (human) (UniProt Q02763)
TXK (human) = TXK (human) (UniProt P42681)
[1] = molecular target: TYK2 JH1 catalytic (human) (UniProt P29597)
WNK2 (human) = WNK2 (human) (UniProt Q9Y3S1)
YES1 (human) = YES1 (human) (UniProt P07947)
ZAP70 (human) = ZAP70 (human) (UniProt P43403)

Sequence of CDK9 CCNT1 (human) (O60563 whole entry, looked up): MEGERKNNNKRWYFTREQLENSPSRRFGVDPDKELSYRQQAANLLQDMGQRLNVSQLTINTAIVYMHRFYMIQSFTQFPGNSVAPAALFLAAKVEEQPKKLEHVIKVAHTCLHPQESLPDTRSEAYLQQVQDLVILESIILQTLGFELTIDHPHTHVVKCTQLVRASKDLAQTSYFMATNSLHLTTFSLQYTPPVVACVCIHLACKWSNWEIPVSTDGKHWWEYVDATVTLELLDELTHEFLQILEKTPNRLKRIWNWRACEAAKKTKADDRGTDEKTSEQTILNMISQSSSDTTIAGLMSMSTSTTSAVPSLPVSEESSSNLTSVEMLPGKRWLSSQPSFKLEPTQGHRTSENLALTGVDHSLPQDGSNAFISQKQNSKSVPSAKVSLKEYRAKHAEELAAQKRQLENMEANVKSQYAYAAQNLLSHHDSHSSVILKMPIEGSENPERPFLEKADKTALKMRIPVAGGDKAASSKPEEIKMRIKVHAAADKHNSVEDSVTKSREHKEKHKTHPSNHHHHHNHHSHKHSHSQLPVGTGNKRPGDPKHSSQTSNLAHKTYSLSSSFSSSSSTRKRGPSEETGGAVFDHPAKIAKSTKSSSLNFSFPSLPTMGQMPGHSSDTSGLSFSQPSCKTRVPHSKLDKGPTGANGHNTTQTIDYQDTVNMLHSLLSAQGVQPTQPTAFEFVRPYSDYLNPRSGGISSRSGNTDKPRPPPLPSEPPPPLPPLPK
Sequence of CDK9 CCNT1 (human) (P50750 whole entry, looked up): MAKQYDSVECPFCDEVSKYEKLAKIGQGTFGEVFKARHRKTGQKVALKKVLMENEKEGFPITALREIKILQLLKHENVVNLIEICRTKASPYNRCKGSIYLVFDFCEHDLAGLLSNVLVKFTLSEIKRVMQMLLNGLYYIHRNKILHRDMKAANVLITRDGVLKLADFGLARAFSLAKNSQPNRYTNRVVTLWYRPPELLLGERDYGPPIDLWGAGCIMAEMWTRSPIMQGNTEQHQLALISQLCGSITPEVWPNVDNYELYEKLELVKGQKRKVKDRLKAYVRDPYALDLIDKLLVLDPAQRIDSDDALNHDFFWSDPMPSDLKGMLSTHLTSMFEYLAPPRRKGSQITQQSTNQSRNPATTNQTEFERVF
Sequence of AURKB (human) (Q96GD4 whole entry, looked up): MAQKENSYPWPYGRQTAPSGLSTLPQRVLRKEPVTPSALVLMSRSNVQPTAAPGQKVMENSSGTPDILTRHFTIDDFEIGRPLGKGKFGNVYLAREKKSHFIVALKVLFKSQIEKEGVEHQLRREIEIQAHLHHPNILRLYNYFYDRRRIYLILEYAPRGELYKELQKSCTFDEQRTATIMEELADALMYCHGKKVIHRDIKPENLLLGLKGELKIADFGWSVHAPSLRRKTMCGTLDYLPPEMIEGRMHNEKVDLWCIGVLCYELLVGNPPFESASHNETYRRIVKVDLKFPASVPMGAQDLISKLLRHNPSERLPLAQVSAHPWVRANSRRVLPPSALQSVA

`Nc1ncnc2c1c(-c1ccc(Oc3ccccc3)cc1)cn2C1CCCC1` showed a residual activity (AURKB (human)) of 88.6%, a residual activity (AXL (human)) of 113% and a residual activity (CAMK1G (human)) of 95.8%. The residual activity (CDK9 CCNK (human)) was 104%, the residual activity (CDK9 CCNT1 (human)) was 104% and the residual activity (CLK1 (human)) was 103%. The residual activity (CSNK1E (human)) was 22.3%, the residual activity (DAPK1 (human)) was 79.1% and the residual activity (FLT1 (human)) was 76.9%. For the same molecule, the residual activity (FLT3 (human)) was 4.48%, the residual activity (GSG2 (human)) was 94.6% and the residual activity (HIPK2 (human)) was 106%. For the same molecule, the residual activity (HIPK4 (human)) was 102%, the residual activity (IGF1R (human)) was 104% and the residual activity (ITK (human)) was 87.1%. The residual activity (MAP3K14 (human)) was 113%, the residual activity (MAP3K3 (human)) was 71.2% and the residual activity (MAP3K5 (human)) was 99.1%. The residual activity (MAP3K9 (human)) was 103%, the residual activity (MAPKAPK2 (human)) was 107% and the residual activity (MYO3B (human)) was 103%. For the same molecule, the residual activity (NLK (human)) was 96.9%, the residual activity (NTRK2 (human)) was 87% and the residual activity (PAK1 (human)) was 96%. For the same molecule, the residual activity (PLK2 (human)) was 92.5%, the residual activity (PLK3 (human)) was 105% and the residual activity (PRKCE (human)) was 96%. It also gave a residual activity (PTK2B (human)) of 96.7%, a residual activity (RPS6KB2 (human)) of 107% and a residual activity (SGK3 (human)) of 112%. It also gave a residual activity (SRPK2 (human)) of 93.4%, a residual activity (STK33 (human)) of 92.3% and a residual activity (STK38 (human)) of 99.3%. It also gave a residual activity (STK4 (human)) of 77.8%, a residual activity (SYK (human)) of 104% and a residual activity (TAOK3 (human)) of 92.9%. It also gave a residual activity (TEK (human)) of 94.3%, a residual activity (TXK (human)) of 17.3% and a residual activity [1] of 98.5%. For the same molecule, the residual activity (WNK2 (human)) was 102%, the residual activity (YES1 (human)) was 0.657% and the residual activity (ZAP70 (human)) was 102%.

In the case of `O=C1NC(=O)c2c1c1c3ccccc3n3c1c1c2c2ccccc2n1C1CCC3O1`, the residual activity (AURKB (human)) was 9.52%, the residual activity (AXL (human)) was 38.1% and the residual activity (CAMK1G (human)) was 56.5%. It also gave a residual activity (CDK9 CCNK (human)) of 15.8%, a residual activity (CDK9 CCNT1 (human)) of 8.52% and a residual activity (CLK1 (human)) of 43.1%. For the same molecule, the residual activity (CSNK1E (human)) was 47.3%, the residual activity (DAPK1 (human)) was 32.7% and the residual activity (FLT1 (human)) was 13.3%. The residual activity (FLT3 (human)) was 0.194%, the residual activity (GSG2 (human)) was 18.5% and the residual activity (HIPK2 (human)) was 32.6%. For the same molecule, the residual activity (HIPK4 (human)) was 29.1%, the residual activity (IGF1R (human)) was 63.8% and the residual activity (ITK (human)) was 8.29%. The residual activity (MAP3K14 (human)) was 134%, the residual activity (MAP3K3 (human)) was 18.4% and the residual activity (MAP3K5 (human)) was 56.2%. It also gave a residual activity (MAP3K9 (human)) of 8.72%, a residual activity (MAPKAPK2 (human)) of 99.2% and a residual activity (MYO3B (human)) of 19.1%. The residual activity (NLK (human)) was 74.1%, the residual activity (NTRK2 (human)) was 6.87% and the residual activity (PAK1 (human)) was 23.6%. It also gave a residual activity (PLK2 (human)) of 62.4%, a residual activity (PLK3 (human)) of 52.5% and a residual activity (PRKCE (human)) of 28.4%. For the same molecule, the residual activity (PTK2B (human)) was 41.5%, the residual activity (RPS6KB2 (human)) was 35% and the residual activity (SGK3 (human)) was 71.7%. It also gave a residual activity (SRPK2 (human)) of 107%, a residual activity (STK33 (human)) of 12.7% and a residual activity (STK38 (human)) of 46.2%. For the same molecule, the residual activity (STK4 (human)) was 3.56%, the residual activity (SYK (human)) was 15.8% and the residual activity (TAOK3 (human)) was 24.5%. It also gave a residual activity (TEK (human)) of 94.1%, a residual activity (TXK (human)) of 22.7% and a residual activity [1] of 4.32%. It also gave a residual activity (WNK2 (human)) of 93.6%, a residual activity (YES1 (human)) of 31.9% and a residual activity (ZAP70 (human)) of 88.4%.

With `Nc1ccc2ncnc(NCCc3ccc(Oc4ccccc4)cc3)c2c1` the residual activity (AURKB (human)) was 99.1%, the residual activity (AXL (human)) was 96.1% and the residual activity (CAMK1G (human)) was 102%. The residual activity (CDK9 CCNK (human)) was 104%, the residual activity (CDK9 CCNT1 (human)) was 101% and the residual activity (CLK1 (human)) was 101%. For the same molecule, the residual activity (CSNK1E (human)) was 148%, the residual activity (DAPK1 (human)) was 110% and the residual activity (FLT1 (human)) was 96%. It also gave a residual activity (FLT3 (human)) of 103%, a residual activity (GSG2 (human)) of 96.9% and a residual activity (HIPK2 (human)) of 110%. The residual activity (HIPK4 (human)) was 97.4%, the residual activity (IGF1R (human)) was 99.7% and the residual activity (ITK (human)) was 104%. The residual activity (MAP3K14 (human)) was 109%, the residual activity (MAP3K3 (human)) was 106% and the residual activity (MAP3K5 (human)) was 105%. The residual activity (MAP3K9 (human)) was 103%, the residual activity (MAPKAPK2 (human)) was 108% and the residual activity (MYO3B (human)) was 96.6%. For the same molecule, the residual activity (NLK (human)) was 104%, the residual activity (NTRK2 (human)) was 104% and the residual activity (PAK1 (human)) was 94.9%. The residual activity (PLK2 (human)) was 102%, the residual activity (PLK3 (human)) was 98.7% and the residual activity (PRKCE (human)) was 109%. For the same molecule, the residual activity (PTK2B (human)) was 95%, the residual activity (RPS6KB2 (human)) was 99.2% and the residual activity (SGK3 (human)) was 106%. The residual activity (SRPK2 (human)) was 95.3%, the residual activity (STK33 (human)) was 101% and the residual activity (STK38 (human)) was 97.9%. For the same molecule, the residual activity (STK4 (human)) was 95.8%, the residual activity (SYK (human)) was 102% and the residual activity (TAOK3 (human)) was 102%. The residual activity (TEK (human)) was 99%, the residual activity (TXK (human)) was 102% and the residual activity [1] was 99.9%. For the same molecule, the residual activity (WNK2 (human)) was 96.7%, the residual activity (YES1 (human)) was 112% and the residual activity (ZAP70 (human)) was 93.2%.
